Laboratory results from patent publication US9918983B2, “Suicidal LSD1 inhibitors targeting SOX2-expressing cancer cells” (THE BOARD OF REGENTS OF THE NEVADA SYSTEM OF HIGHER …, priority 2013, dated 2018).

Test system: histone H3 and H4 methylation and acetylation
Experiment: Histone modifications in F9 cells (Western blotting)
Type: cell-based, mouse
Protocol: To quantify and compare the protein band densities in the Western blots shown in the figures, a titration by serial dilution of the siRNA protein samples for mES cell lysates was used as a reference. The concentration of titration samples was measured by use of a NanoDrop 2000 apparatus, and the protein concentration of all titration samples was adjusted to 1 μg/μL. The protein samples were loaded onto an SDS-polyacrylamide gel at levels ranging from 1 μg to 13 μg at 2-μg intervals and immune blotted with each antibody, including anti-LSD1, anti-HDAC1, and anti-histone H3 antibodies, with three independent loadings. The Western blots were developed with exposure times ranging from 30 s to 1 min. The exposure density of each band was scanned by Adobe Photoshop Elements (version 4.0) software using a CanonScan 8600F scanner (Canon, Calif.) and was subsequently quantified by use of the area density tool of Gel-Pro Analyzer (version 4.0) software (Media Cybernetics, Inc.) and plotted. The regression analysis of each signal was performed by use of the Microsoft Excel program's Analysis Tool Pak regression option. […] The amount of the protein band in the Western blot shown in the figures was quantified by scanning, as described for the reference titration. […] The quantity of protein band densities between two protein samples was externally corrected by use of the reference plots. […] The statistical differences between the experimental and control groups were analyzed by one-way analysis of variance (ANOVA). […]
Referring to FIG. 28D, time course analyses of the effects of 50 μM LSD1 inhibitor CBB1007 on histone modifications in F9 cells are shown, but with a shorter time course than above. The mean density of each band was quantified by the use of Gel-Pro Analyzer (version 4.0) software, and error bars represent SEMs for duplicate samples. […] The statistical differences were analyzed by one-way ANOVA. *, P_0.05; **, P_0.01. […]

**Q.** With `COC(=O)c1cc(CN2CCN(C(=N)N)CC2)cc(C(=O)N2CCN(C(=O)c3ccc(C(=N)N)cc3)CC2)c1` [CBB1007] as the compound, how does the “H3K4 methylation of oligonucleosomes from treated cells” value read?
**A.** hypermethylated on H3K4

**Q.** And the “time to increases of acetylation at H4K16 and H3K56 and mono- and dimethylation at H3K4” value (50 μM)?
**A.** ≤ 20 min
